Type in all cases: cell-based
One test deals with rat mGlu3 (Rattus norvegicus (Rat), UniProt P31422). The test is described as follows: mGlu3 Ca2+ flux assay. As to conditions: for IC50: NAM, glutamate EC80, >10,000 = decrease without plateau, >30,000 = no measurable activity; for remaining activity at 30 µM: read-out: rat mGlu3 Glu max (%). Here is the method:
Gα15/TREx cells stably expressing rat mGlu3 were plated in black-walled, clear-bottomed, poly-D-lysine coated 384-well plates in 20 μL of assay medium (DMEM containing 10% dialyzed FBS, 20 mM HEPES, 25 ng/mL tetracycline, 100 units/mL penicillin/streptomycin plus 250 ng/mL Fungizone, and 1 mM sodium pyruvate) at a density of 15K cells/well. The cells were grown overnight at 37° C. in the presence of 5% CO2. […] Dye was removed, 20 μL of assay buffer was added, and the plate was incubated for 10 minutes at room temperature.
(§1) Ca^2+ flux was measured using the Functional Drug Screening System (FDSS7000, Hamamatsu, Japan). After establishment of a fluorescence baseline for about 3 seconds, the compounds of the present invention were added to the cells, and the response in cells was measured. 2.3 minutes later an EC20 concentration of the mGlu3 receptor agonist glutamate was added to the cells, and the response of the cells was measured for 1.9 minutes; an EC80 concentration of agonist was added and readings taken for an additional 1.7 minutes. All test compounds were dissolved and diluted to a concentration of 10 mM in 100% DMSO. Compounds were then serially diluted 1:3 in DMSO into 10 point concentration response curves, transferred to daughter plates, and further diluted into assay buffer to a 2× stock. Calcium fluorescence measures were recorded as fold over basal fluorescence; raw data was then normalized to the maximal response to glutamate.
(§2) The raw data file containing all time points was used as the data source in the analysis template. This was saved by the FDSS as a tab-delimited text file. Data were normalized using a static ratio function (F/F0) for each measurement of the total 360 values per well divided by each well's initial value. Data were then reduced to peak amplitudes (Max−Initial Min) using a time range that starts approximately 3 seconds prior to the glutamate EC80 addition and continues for approximately 90 seconds. This is sufficient time to capture the peak amplitude of the cellular calcium response. Individual amplitudes were expressed as % EMax by multiplying each amplitude by 100 and then dividing the product by the mean of the amplitudes derived from the glutamate ECMax-treated wells. EC50 values for test compounds were generated by fitting the normalized values versus the log of the test compound concentration (in mol/L) using a 4 parameter logistic equation where none of the parameters were fixed. Each of the three values collected at each concentration of test compound were weighted evenly.

The target in the next test is rat mGlu2 (Rattus norvegicus (Rat), UniProt P31421). The test is described as follows: mGlu2 Ca2+ flux assay. Particulars: NAM, glutamate EC80; >30,000 = no measurable activity. How it is done: (§3) Gα15 HEK293 cells stably expressing rat mGlu2 were plated in black-walled, clear-bottomed, poly-D-lysine coated 384-well plates in 20 μL of assay medium (DMEM containing 10% dialyzed FBS, 20 mM HEPES, and 1 mM sodium pyruvate) at a density of 12K cells/well. The cells were grown overnight at 37° C. in the presence of 5% CO2. The next day, medium was removed and the cells incubated with 20 μL of […] Fluo-4, AM prepared as a 2.3 mM stock in DMSO and mixed in a 1:1 ratio with 10% (w/v) pluronic acid F-127 and diluted in assay buffer (Hank's balanced salt solution, 20 mM HEPES, and 2.5 mM probenecid) for 45 minutes at 37° C. Dye was removed, 20 μL of assay buffer was added, and the plate was incubated for 5 minutes at room temperature.
as §1, with “mGlu2” for “mGlu3”
as §2, with “ECMax” for “EMax”, “IC50” for “EC50”

A further test concerns the target rat mGlu5 (Rattus norvegicus (Rat), UniProt P31424). The test is described as follows: mGlu5 Ca2+ flux assay. As to conditions: for EC50: glutamate EC20, >10,000 = no plateau, >30,000 = no measurable activity, read-out: rat mGlu5 EC50 or IC50; for activity at 30 µM: read-out: rat mGlu5 Glu max (%). How it is done:
as §3, with “HEK 293A cells stably” for “Gα15 HEK293 cells stably”, “expressing rat mGlu5 were plated” for “expressing rat mGlu2 were plated”, “mM HEPES, 100 units/mL penicillin/streptomycin plus 250 ng/mL Fungizone, and 1” for “mM HEPES, and 1”, “density of 20K cells/well. The” for “density of 12K cells/well. The”
as §1, with “mGlu5” for “mGlu3”
as §2, with “EC20/EC80” for “EC80”, “90-120” for “90”
(In general: Calcium flux is commonly read through the fluorescence of an indicator in the cells.)

Where [1] appears, read: response at 30 μM test compound as percentage of maximal response to glutamate.
Where [2] appears, read: PAM, response at 30 μM test compound as percentage of maximal response to glutamate.

Here are results for 13 molecules from patent US10399948B2, “Negative allosteric modulators of metabotropic glutamate receptor 3” (Vanderbilt University, priority 2015, dated 2019).

Read-outs that look alike come from different tables or passages of the source.

Sequence of rat mGlu3 (P31422 23-879): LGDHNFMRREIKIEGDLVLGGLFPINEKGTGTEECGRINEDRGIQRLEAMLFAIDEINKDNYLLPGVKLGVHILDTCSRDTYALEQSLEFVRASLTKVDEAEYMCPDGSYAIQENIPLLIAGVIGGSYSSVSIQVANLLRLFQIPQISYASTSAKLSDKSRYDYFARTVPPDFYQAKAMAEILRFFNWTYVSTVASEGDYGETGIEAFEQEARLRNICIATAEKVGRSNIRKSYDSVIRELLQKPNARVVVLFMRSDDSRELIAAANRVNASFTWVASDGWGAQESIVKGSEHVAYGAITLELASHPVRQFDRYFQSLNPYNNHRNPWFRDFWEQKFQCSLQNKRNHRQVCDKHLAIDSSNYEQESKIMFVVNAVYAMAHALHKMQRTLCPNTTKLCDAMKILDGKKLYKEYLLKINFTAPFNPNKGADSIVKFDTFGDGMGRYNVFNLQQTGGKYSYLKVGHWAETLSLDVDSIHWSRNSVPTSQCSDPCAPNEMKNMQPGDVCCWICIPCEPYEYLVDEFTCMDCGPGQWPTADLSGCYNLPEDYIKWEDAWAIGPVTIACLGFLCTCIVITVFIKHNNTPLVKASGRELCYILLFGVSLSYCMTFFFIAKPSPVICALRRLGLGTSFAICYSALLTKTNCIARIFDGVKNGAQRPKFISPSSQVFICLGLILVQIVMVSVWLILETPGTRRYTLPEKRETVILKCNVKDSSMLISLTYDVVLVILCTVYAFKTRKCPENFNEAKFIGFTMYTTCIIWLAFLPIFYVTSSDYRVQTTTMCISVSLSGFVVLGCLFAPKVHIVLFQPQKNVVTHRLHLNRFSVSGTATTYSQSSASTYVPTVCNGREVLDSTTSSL
Sequence of rat mGlu2 (P31421 19-872): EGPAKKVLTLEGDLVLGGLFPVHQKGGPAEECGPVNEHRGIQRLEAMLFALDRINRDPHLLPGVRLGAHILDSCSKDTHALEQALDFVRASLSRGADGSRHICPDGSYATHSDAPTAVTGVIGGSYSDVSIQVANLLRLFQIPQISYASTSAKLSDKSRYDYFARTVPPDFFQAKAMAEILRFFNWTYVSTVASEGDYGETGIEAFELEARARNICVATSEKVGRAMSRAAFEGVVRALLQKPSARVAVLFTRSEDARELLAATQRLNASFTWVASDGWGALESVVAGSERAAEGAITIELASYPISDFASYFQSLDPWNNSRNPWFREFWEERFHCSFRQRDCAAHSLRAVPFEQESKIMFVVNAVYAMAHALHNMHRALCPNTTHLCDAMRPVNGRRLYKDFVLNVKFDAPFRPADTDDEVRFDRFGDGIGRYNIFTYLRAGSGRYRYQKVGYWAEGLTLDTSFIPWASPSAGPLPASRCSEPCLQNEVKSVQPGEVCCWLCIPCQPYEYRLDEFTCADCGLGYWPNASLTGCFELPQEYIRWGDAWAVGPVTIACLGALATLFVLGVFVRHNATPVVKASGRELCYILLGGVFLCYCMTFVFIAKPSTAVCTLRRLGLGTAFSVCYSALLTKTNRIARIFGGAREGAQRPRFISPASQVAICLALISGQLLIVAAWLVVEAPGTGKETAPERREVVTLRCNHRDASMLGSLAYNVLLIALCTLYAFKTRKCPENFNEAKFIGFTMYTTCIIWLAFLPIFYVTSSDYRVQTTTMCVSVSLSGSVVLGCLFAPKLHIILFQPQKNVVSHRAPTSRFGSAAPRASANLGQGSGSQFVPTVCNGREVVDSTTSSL
Sequence of rat mGlu5 (P31424 21-1203): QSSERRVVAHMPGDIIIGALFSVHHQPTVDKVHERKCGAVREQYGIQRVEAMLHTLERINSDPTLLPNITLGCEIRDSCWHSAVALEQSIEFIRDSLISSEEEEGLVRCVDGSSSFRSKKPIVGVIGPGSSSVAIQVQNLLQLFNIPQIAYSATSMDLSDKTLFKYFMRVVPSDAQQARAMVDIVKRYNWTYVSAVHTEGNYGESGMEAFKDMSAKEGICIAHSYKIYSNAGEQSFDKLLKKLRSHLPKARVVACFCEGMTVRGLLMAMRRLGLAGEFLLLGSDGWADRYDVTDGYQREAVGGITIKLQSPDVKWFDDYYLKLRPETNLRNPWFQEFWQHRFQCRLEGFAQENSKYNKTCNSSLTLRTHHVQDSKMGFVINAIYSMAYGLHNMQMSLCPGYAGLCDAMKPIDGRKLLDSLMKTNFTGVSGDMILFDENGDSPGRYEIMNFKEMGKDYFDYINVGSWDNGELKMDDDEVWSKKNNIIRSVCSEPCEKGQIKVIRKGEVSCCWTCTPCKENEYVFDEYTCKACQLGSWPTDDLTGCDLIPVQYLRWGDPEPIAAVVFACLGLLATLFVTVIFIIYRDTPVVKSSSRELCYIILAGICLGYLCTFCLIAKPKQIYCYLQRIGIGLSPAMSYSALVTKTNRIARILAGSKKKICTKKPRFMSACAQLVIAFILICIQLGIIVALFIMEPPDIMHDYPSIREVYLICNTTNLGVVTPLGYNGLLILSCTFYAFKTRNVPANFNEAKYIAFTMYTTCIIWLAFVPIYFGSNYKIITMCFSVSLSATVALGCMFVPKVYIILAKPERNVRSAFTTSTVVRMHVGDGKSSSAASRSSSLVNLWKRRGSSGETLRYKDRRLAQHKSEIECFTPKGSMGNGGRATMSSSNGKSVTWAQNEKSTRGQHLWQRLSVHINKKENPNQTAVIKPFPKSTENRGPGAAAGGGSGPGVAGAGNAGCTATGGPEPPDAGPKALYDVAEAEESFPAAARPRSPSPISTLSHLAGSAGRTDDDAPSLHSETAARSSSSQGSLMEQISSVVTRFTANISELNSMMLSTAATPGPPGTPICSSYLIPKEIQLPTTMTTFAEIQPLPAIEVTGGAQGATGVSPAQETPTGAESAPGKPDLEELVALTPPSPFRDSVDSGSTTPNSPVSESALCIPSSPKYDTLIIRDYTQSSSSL

One may read the IC50 as the concentration that inhibits the measured activity by half. Higher therefore signals weaker potency. One may read the EC50 as the concentration needed to bring the measured effect to its halfway point. For `CC(COc1ccn(-c2ccc(F)cc2)c(=O)c1)Oc1ccccc1` (stereo not drawn) [Compound 1, 1-(4-Fluorophenyl)-4-(2-phenoxypropoxy)pyridin-2(1H)-one], the IC50 was 0.728 µM against rat mGlu3 and more than 30 µM against rat mGlu2. For the same molecule, the remaining activity at 30 µM at rat mGlu3 (setting [1]) was determined as 0.69%. In addition, the 50% effective concentration (EC50) on rat mGlu5 (PAM) was more than 30 µM.
On to `CC(COc1ccccc1)Oc1ccn(-c2ccc(F)cc2)c(=O)c1` (stereo not drawn) [Compound 5, 1-(4-fluorophenyl)-4-((1-phenoxypropan-2-yl)oxy)pyridin-2(1H)-one], for which the IC50 against rat mGlu3 was 1.16 µM; against rat mGlu2 it was more than 30 µM. Further, the remaining activity at 30 µM at rat mGlu3 (setting [1]) is 1.6%. Besides, the EC50 at rat mGlu5 (PAM) is more than 10 µM. For the same molecule, the activity at 30 µM at rat mGlu5 (setting [2]) amounted to 42.5%.
In the same order, the values of `O=c1nc(OCCOc2ccccc2)ccn1-c1cccc(F)c1` [Compound 14, 1-(3-fluorophenyl)-4-(2-phenoxyethoxy)pyrimidin-2(1H)-one] are 0.296 µM, more than 30 µM, 1.61%, 3.54 µM and 77.5%.
Turning to `O=c1cc(OCCOc2ccccc2)ccn1-c1cc(F)cc(F)c1` [Compound 21, 1-(3,5-difluorophenyl)-4-(2-phenoxyethoxy)pyridin-2(1H)-one], at rat mGlu3, the half-inhibitory concentration (IC50) turned out to be 0.799 µM and the remaining activity at 30 µM came to 7.25%. Besides, the EC50 on rat mGlu5 (PAM) was determined as 0.818 µM. Moreover, the activity at 30 µM at rat mGlu5 turned out to be 28.3%.
`O=c1cc(OCCOc2cnccc2Cl)ccn1-c1ccc(F)cc1` [Compound 47, 4-(2-((4-chloropyridin-3-yl)oxy)ethoxy)-1-(4-fluorophenyl)pyridin-2(1H)-one]: the figures for the IC50 against rat mGlu3 and on rat mGlu2 were more than 10 µM and more than 30 µM, respectively. Besides, the remaining activity at 30 µM at rat mGlu3 (setting [1]) was determined as 36.7%.
In the same order, the values of `O=c1cc(OCCOc2cccnc2Cl)ccn1-c1ccc(F)cc1` [Compound 48, 4-(2-((2-chloropyridin-3-yl)oxy)ethoxy)-1-(4-fluorophenyl)pyridin-2(1H)-one] are 5.56 µM, more than 30 µM and -2.79%.
Turning to `O=c1cc(OCCOc2ccccn2)ccn1-c1ccc(F)cc1` [Compound 50, 1-(4-fluorophenyl)-4-(2-(pyridin-2-yloxy)ethoxy)pyridin-2(1H)-one], the IC50 on rat mGlu3 was 1.94 µM; at rat mGlu2, more than 30 µM. Besides, at rat mGlu3 (setting [1]), the remaining activity at 30 µM is -0.52%.
In the same order, the values of `O=c1cc(OCCOc2ncccc2F)ccn1-c1ccc(F)cc1` [Compound 51, 1-(4-fluorophenyl)-4-(2-((3-fluoropyridin-2-yl)oxy)ethoxy)pyridin-2(1H)-one] are 1.28 µM, more than 30 µM and 0.2%.
For the molecule `O=c1cc(OCCOc2ccc(F)cn2)ccn1-c1ccc(F)cc1` [Compound 52, 1-(4-fluorophenyl)-4-(2-((5-fluoropyridin-2-yl)oxy)ethoxy)pyridin-2(1H)-one], the IC50 at rat mGlu3 is 1.06 µM; on rat mGlu2, more than 30 µM. Moreover, the remaining activity at 30 µM at rat mGlu3 (setting [1]) amounted to 0.26%.
On to `O=c1cc(OCCOc2cccc(Cl)n2)ccn1-c1ccc(F)cc1` [Compound 53, 4-(2-((6-chloropyridin-2-yl)oxy)ethoxy)-1-(4-fluorophenyl)pyridin-2(1H)-one], for which the IC50 at rat mGlu3 was 4.27 µM; against rat mGlu2 it was more than 30 µM. For the same molecule, at rat mGlu3 (setting [1]), the remaining activity at 30 µM was -1.66%.
In the same order, the values of `N#Cc1cccnc1OCCOc1ccn(-c2ccc(F)cc2)c(=O)c1` [Compound 56, 2-(2-((1-(4-fluorophenyl)-2-oxo-1,2-dihydropyridin-4-yl)oxy)ethoxy)nicotinonitrile] are more than 10 µM, more than 30 µM and 18%.
In the same order, the values of `N#Cc1ccc(OCCOc2ccn(-c3ccc(F)cc3)c(=O)c2)nc1` [Compound 58, 6-(2-((1-(4-fluorophenyl)-2-oxo-1,2-dihydropyridin-4-yl)oxy)ethoxy)nicotinonitrile] are 1.38 µM, more than 30 µM and 1.06%.
As to `N#Cc1cccc(OCCOc2ccn(-c3ccc(F)cc3)c(=O)c2)n1` [Compound 59, 6-(2-((1-(4-fluorophenyl)-2-oxo-1,2-dihydropyridin-4-yl)oxy)ethoxy)picolinonitrile], the 50% inhibitory concentration (IC50) on rat mGlu3 was more than 10 µM; against rat mGlu2, more than 30 µM. The remaining activity at 30 µM on rat mGlu3 (setting [1]) amounted to 35.9%.
